These compounds were tested against T1, mTOR (UniProt P42346+P62942) (assay: mTOR Assay Screening Protocol (K-LISA mTOR Activity Kit, inhibitor with FKBP12)). Settings: mTOR Standard pre-incubated with inhibitor and FKBP12 (35-37 ug/ml); p70S6K-T389 phosphorylation ELISA, absorbance at 450 nm.
T1 construct: purchased Calbiochem CBA055
Assay type: biochemical
Experimental: mTOR Assay Screening Protocol
Kit: Calbiochem Cat. No. CBA055: K-LISA mTOR Activity Kit
The following table provides reagent preparation instructions to obtain the volume of Working Solutions (WS) required for 10 wells. Volumes can be scaled to process more samples and provide overage for pipetting error.
Reagent Volume (per 10-well strip) Composition: mTOR Substrate WS: 1 ml Dilution factor: 1:400 FKBP12: Sigma F5398 FK-Binding Protein human, recombinant, expressed in Escherichia coli
A. Protocol for mTOR Kinase Activity and Inhibitor Screening: 1. Remove the required number of strips from the Glutathione-Coated 96-Well Plate and place them in the 96-well frame. 2. Add 100 μl mTOR Substrate WS to each well and incubate for 1 h at room temperature. 3. When performing inhibitor screening/testing, pre-incubate 50 μl mTOR Standard (from step 2) with test inhibitor or wortmannin in a separate tube on ice for 20 min (for example 50 μl mTOR Standard with 1 μl Woltmannin, 50×). This pre-incubation can be carried out during the incubation in step 2. • For inhibitor testing: weigh out inhibitor and resuspend in DMSO to a concentration of 5 mM prior to addition to assay • Test concentrations for inhibitors in assay ranged from 10 uM-0.0048 uM (final concentrations) • Inhibitor reaction contained: mTOR Standard, inhibitor (at indicated concentration) and FKBP12 (at 35-37 ug/ml) • Dilutions of inhibitors made in TBS • Controls for assay include: mTOR Standard only, mTOR Substrate only (blank), FKBP12+mTOR Standard (no inhibitor), inhibitor compound+mTOR Standard (no FKBP12), 4. Aspirate contents of the wells and wash each well of the Glutathione-Coated 96-Well Plate with 200 μl TBS. Empty the contents of the wells into the sink and dry the wells by tapping the inverted plate on paper towels. Repeat for a total of 3 washes. 5. Add the following components to each well in the specified order: […]
mTOR Standard or mTOR Sample* (diluted to assay range with phosphate-free buffer or water): 50 μl 2× Kinase Assay Buffer WS: 50 μl
*Pre-incubated with inhibitor in step 3 or without inhibitor 6. Cover the plate with the Plate Sealer, mix with a plate shaker or equivalent for 30 seconds, and incubate for 30 minutes at 30° C. 7. Stop the kinase reaction by adding 10 μl Kinase Stop Solution to each well. (Reaction may also be stopped simply by discarding the contents of the wells). 8. Aspirate the contents of each well and wash with 200 μl Plate Wash (1×). Gently agitate the plate using a plate shaker or equivalent for 5 min. Empty the contents of the wells into the sink and dry the wells by tapping the inverted plate on paper towels. Wash the plate 2 more times without shaking the plate. 9. Add 100 μl Anti-p70S6K-T389 WS to each well, cover the plate with the Plate Sealer, and incubate 1 h at room temperature. 10. Wash the plate 4 times as outlined in step 8 without shaking the plate. 11. Add 100 μl HRP-Antibody Conjugate WS to each well, cover the plate with the Plate Sealer, and incubate 1 h at room temperature. 12. Wash the plate as outlined in step 10. 13. Add 100 μl TMB Substrate to each well, cover the plate with the Plate Sealer, and incubate 5-20 min at room temperature. 14. […] 15. Analyze data using Microsoft Excel and GraphPad Prism software.

T1 sequence (P62942 2-108 limits assumed, other chains not shown): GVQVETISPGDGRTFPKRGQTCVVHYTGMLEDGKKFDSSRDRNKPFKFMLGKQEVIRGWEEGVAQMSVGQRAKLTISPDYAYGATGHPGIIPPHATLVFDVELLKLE

**Q.** How did the IC50 turn out when `CO[C@H]1C[C@@H]2CC[C@@H](C)[C@@](O)(O2)C(=O)C(=O)N2CCCC[C@H]2C(=O)O[C@H]([C@H](C)C[C@@H]2CC[C@@H](OC(=O)NS(=O)(=O)N3CCOCC3)[C@H](OC)C2)CC(=O)[C@H](C)/C=C(\C)[C@@H](O)[C@@H](OC)C(=O)[C@H](C)C[C@H](C)/C=C/C=C/C=C/1C` [Example 1, 42-O-[Morpholinosulfonylcarbamyl]-rapamycin] was run?
**A.** The IC50 was 10 nM.

**Q.** For `CO[C@H]1C[C@@H]2CC[C@@H](C)[C@@](O)(O2)C(=O)C(=O)N2CCCC[C@H]2C(=O)O[C@H]([C@H](C)C[C@@H]2CC[C@@H](OC(=O)NS(=O)(=O)N(C)C)[C@H](OC)C2)CC(=O)[C@H](C)/C=C(\C)[C@@H](O)[C@@H](OC)C(=O)[C@H](C)C[C@H](C)/C=C/C=C/C=C/1C` [Example 2, 42-O-[Dimethylaminosulfonylcarbamyl]-rapamycin], which IC50 is on record?
**A.** Its IC50 is 30 nM.

**Q.** For `CO[C@H]1C[C@@H]2CC[C@@H](C)[C@@](O)(O2)C(=O)C(=O)N2CCCC[C@H]2C(=O)O[C@H]([C@H](C)C[C@@H]2CC[C@@H](OC(=O)NS(=O)(=O)N(CCO)CCO)[C@H](OC)C2)CC(=O)[C@H](C)/C=C(\C)[C@@H](O)[C@@H](OC)C(=O)[C@H](C)C[C@H](C)/C=C/C=C/C=C/1C` [Example 3, 42-O—[N,N-Bis(2-hydroxyethyl)aminosulfonylcarbamyl]-rapamycin], which IC50 is on record?
**A.** The IC50 was 110 nM.

**Q.** `CO[C@H]1C[C@@H]2CC[C@@H](C)[C@@](O)(O2)C(=O)C(=O)N2CCCC[C@H]2C(=O)O[C@H]([C@H](C)C[C@@H]2CC[C@@H](OC(=O)NS(=O)(=O)N3CC[C@@H](O)C3)[C@H](OC)C2)CC(=O)[C@H](C)/C=C(\C)[C@@H](O)[C@@H](OC)C(=O)[C@H](C)C[C@H](C)/C=C/C=C/C=C/1C` [Example 4, 42-O—[(R)-3-hydroxypyrrolidin-1-ylsulfonylcarbamyl]-rapamyein] was tested. Which IC50 did it give?
**A.** Its IC50 is 10 nM.

**Q.** With `CO[C@H]1C[C@@H]2CC[C@@H](C)[C@@](O)(O2)C(=O)C(=O)N2CCCC[C@H]2C(=O)O[C@H]([C@H](C)C[C@@H]2CC[C@@H](OC(=O)NS(=O)(=O)Nc3ccc(O)cc3)[C@H](OC)C2)CC(=O)[C@H](C)/C=C(\C)[C@@H](O)[C@@H](OC)C(=O)[C@H](C)C[C@H](C)/C=C/C=C/C=C/1C` [Example 5, 42-O-[4-Hydroxyanilinsulfonylcarbamyl]-rapamycin] as the compound, how does the IC50 read?
**A.** Its IC50 is 1 nM.

**Q.** For `CO[C@H]1C[C@@H]2CC[C@@H](C)[C@@](O)(O2)C(=O)C(=O)N2CCCC[C@H]2C(=O)O[C@H]([C@H](C)C[C@@H]2CC[C@@H](OC(=O)N3CCN(C)CC3)[C@H](OC)C2)CC(=O)[C@H](C)/C=C(\C)[C@@H](O)[C@@H](OC)C(=O)[C@H](C)C[C@H](C)/C=C/C=C/C=C/1C` [Example 6, 42-O-[4-Methylpiperazine-1-carboxy]-rapamycin], which IC50 is on record?
**A.** The IC50 was 2500 nM.

**Q.** For `CO[C@H]1C[C@@H]2CC[C@@H](C)[C@@](O)(O2)C(=O)C(=O)N2CCCC[C@H]2C(=O)O[C@H]([C@H](C)C[C@@H]2CC[C@@H](OC(=O)CN3CCC(O)CC3)[C@H](OC)C2)CC(=O)[C@H](C)/C=C(\C)[C@@H](O)[C@@H](OC)C(=O)[C@H](C)C[C@H](C)/C=C/C=C/C=C/1C` [Example 8, 42-O-[2-(4-Hydroxypiperidin-1-yl)acetyl]-rapamycin], which IC50 is on record?
**A.** Its IC50 is 70 nM.

**Q.** Which IC50 does the source give for `CO[C@H]1C[C@@H]2CC[C@@H](C)[C@@](O)(O2)C(=O)C(=O)N2CCCC[C@H]2C(=O)O[C@H]([C@H](C)C[C@@H]2CC[C@@H](OC[Si](C)(C)C)[C@H](OC)C2)CC(=O)[C@H](C)/C=C(\C)[C@@H](O)[C@@H](OC)C(=O)[C@H](C)C[C@H](C)/C=C/C=C/C=C/1C` [Example 11, 42-O-[Trimethylsilyl-methyl]-rapamycin] here?
**A.** The IC50 was 2300 nM.

**Q.** For `CO[C@H]1C[C@@H]2CC[C@@H](C)[C@@](O)(O2)C(=O)C(=O)N2CCCC[C@H]2C(=O)O[C@H]([C@H](C)C[C@@H]2CC[C@@H](OCCOC[Si](C)(C)C)[C@H](OC)C2)CC(=O)[C@H](C)/C=C(\C)[C@@H](O)[C@@H](OC)C(=O)[C@H](C)C[C@H](C)/C=C/C=C/C=C/1C` [Example 12, 42-O-[2-(Trimethylsilan-methoxy)-ethyl]-rapamycin], which IC50 is on record?
**A.** The IC50 was 30 nM.

**Q.** With `CO[C@H]1C[C@@H]2CC[C@@H](C)[C@@](O)(O2)C(=O)C(=O)N2CCCC[C@H]2C(=O)O[C@H]([C@H](C)C[C@@H]2CC[C@@H](OC(=O)CN3CCC(CCO)CC3)[C@H](OC)C2)CC(=O)[C@H](C)/C=C(\C)[C@@H](O)[C@@H](OC)C(=O)[C@H](C)C[C@H](C)/C=C/C=C/C=C/1C` [Example 13, 42-O-[2-(4-(2-Hydroxyethyl)piperidin-1-yl)acetyl]rapamycin] as the compound, how does the IC50 read?
**A.** The IC50 was 70 nM.

**Q.** `CO[C@H]1C[C@@H]2CC[C@@H](C)[C@@](O)(O2)C(=O)C(=O)N2CCCC[C@H]2C(=O)O[C@H]([C@H](C)C[C@@H]2CC[C@@H](OC(=O)CN(CCO)CCO)[C@H](OC)C2)CC(=O)[C@H](C)/C=C(\C)[C@@H](O)[C@@H](OC)C(=O)[C@H](C)C[C@H](C)/C=C/C=C/C=C/1C` [Example 14, 42-O-[2-(Bis(2-hydroxyethyl)amino)acetyl]-rapamycin] was tested. Which IC50 did it give?
**A.** Its IC50 is 240 nM.

**Q.** With `CO[C@H]1C[C@@H]2CC[C@@H](C)[C@@](O)(O2)C(=O)C(=O)N2CCCC[C@H]2C(=O)O[C@H]([C@H](C)C[C@@H]2CC[C@@H](OC(=O)N3CCC(O)CC3)[C@H](OC)C2)CC(=O)[C@H](C)/C=C(\C)[C@@H](O)[C@@H](OC)C(=O)[C@H](C)C[C@H](C)/C=C/C=C/C=C/1C` [Example 15] as the compound, how does the IC50 read?
**A.** Its IC50 is 210 nM.

**Q.** `CO[C@H]1C[C@@H]2CC[C@@H](C)[C@@](O)(O2)C(=O)C(=O)N2CCCC[C@H]2C(=O)O[C@H]([C@H](C)C[C@@H]2CC[C@@H](OC(=O)NCCN3CCOCC3)[C@H](OC)C2)CC(=O)[C@H](C)/C=C(\C)[C@@H](O)[C@@H](OC)C(=O)[C@H](C)C[C@H](C)/C=C/C=C/C=C/1C` [Example 16, 42-O-(2-Morpholinoethylaminocarbonyl)-rapamycin] was tested. Which IC50 did it give?
**A.** Its IC50 is 300 nM.

**Q.** For `CO[C@H]1C[C@@H]2CC[C@@H](C)[C@@](O)(O2)C(=O)C(=O)N2CCCC[C@H]2C(=O)O[C@H]([C@H](C)C[C@@H]2CC[C@@H](OCCCS(=O)(=O)N3CCOCC3)[C@H](OC)C2)CC(=O)[C@H](C)/C=C(\C)[C@@H](O)[C@@H](OC)C(=O)[C@H](C)C[C@H](C)/C=C/C=C/C=C/1C` [Example 17, 42-O-[3-(Morpholinosulfonyl)propyl]-rapamycin], which IC50 is on record?
**A.** The IC50 was 140 nM.
